{
  "source": "PubChem BioAssay AID2060509",
  "about": "(Molecular Pharmacology Branch, DTP, NCI, 2025)",
  "test_system": "485176-168-R4-J1-PDC spheroids with HUVEC/MSC, viability",
  "assay": "Anticancer human tumor 485176-168-R4-J1-PDC patient-derived pancreatic adenocarcinoma cell line growth inhibition [GQUAD]",
  "details": "for IC50: curve of first compound; for viability, T/C: stronger effect = lower value",
  "in_short": "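Tumor cells were grown as complex spheroids with HUVEC endothelial cells and mesenchymal stem cells as stroma. G-quadruplex stabilizers were combined with targeted agents over half-log dilutions from near the clinical Cmax, or from 10 microM.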",
  "key": {"[1]": {"details": "second compound 0.0316 µM, first compound 0.0316 µM"}, "[2]": {"details": "second compound 0.0316 µM, first compound 0.1 µM"}, "[3]": {"details": "second compound 0.0316 µM, first compound 0.316 µM"}, "[4]": {"details": "second compound 0.0316 µM, first compound 1 µM"}, "[5]": {"details": "second compound 0.0316 µM, first compound 3.16 µM"}, "[6]": {"details": "second compound 0.0316 µM, first compound 10 µM"}, "[7]": {"details": "second compound 0.1 µM, first compound 0.0316 µM"}, "[8]": {"details": "second compound 0.1 µM, first compound 0.1 µM"}, "[9]": {"details": "second compound 0.1 µM, first compound 0.316 µM"}, "[10]": {"details": "second compound 0.1 µM, first compound 1 µM"}, "[11]": {"details": "second compound 0.1 µM, first compound 3.16 µM"}, "[12]": {"details": "second compound 0.1 µM, first compound 10 µM"}, "[13]": {"details": "second compound 0.316 µM, first compound 0.0316 µM"}, "[14]": {"details": "second compound 0.316 µM, first compound 0.1 µM"}, "[15]": {"details": "second compound 0.316 µM, first compound 0.316 µM"}, "[16]": {"details": "second compound 0.316 µM, first compound 1 µM"}, "[17]": {"details": "second compound 0.316 µM, first compound 3.16 µM"}, "[18]": {"details": "second compound 0.316 µM, first compound 10 µM"}, "[19]": {"details": "second compound 1 µM, first compound 0.0316 µM"}, "[20]": {"details": "second compound 1 µM, first compound 0.1 µM"}, "[21]": {"details": "second compound 1 µM, first compound 0.316 µM"}, "[22]": {"details": "second compound 1 µM, first compound 1 µM"}, "[23]": {"details": "second compound 1 µM, first compound 3.16 µM"}, "[24]": {"details": "second compound 1 µM, first compound 10 µM"}, "[25]": {"details": "second compound 3.16 µM, first compound 0.0316 µM"}, "[26]": {"details": "second compound 3.16 µM, first compound 0.1 µM"}, "[27]": {"details": "second compound 3.16 µM, first compound 0.316 µM"}, "[28]": {"details": "second compound 3.16 µM, first compound 1 µM"}, "[29]": {"details": "second compound 3.16 µM, first compound 3.16 µM"}, "[30]": {"details": "second compound 3.16 µM, first compound 10 µM"}, "[31]": {"details": "second compound 10 µM, first compound 0.0316 µM"}, "[32]": {"details": "second compound 10 µM, first compound 0.1 µM"}, "[33]": {"details": "second compound 10 µM, first compound 0.316 µM"}, "[34]": {"details": "second compound 10 µM, first compound 1 µM"}, "[35]": {"details": "second compound 10 µM, first compound 3.16 µM"}, "[36]": {"details": "second compound 10 µM, first compound 10 µM"}},
  "data": [
    {"molecule": "CC1COCCN1c1cc(C2(O)CC3CCC(C2)O3)c2cnn(-c3ccn[nH]3)c2n1", "note": "(centres undefined) + CN(C)c1ccc(Nc2c3ccc(NC(=O)CCN4CCCC4)cc3nc3cc(NC(=O)CCN4CCCC4)ccc23)cc1;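 further: spheroids exposed to compounds for seven days before readout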;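 on viability, T/C: percent viability relative to DMSO vehicle control wells as 100%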", "values": [
      {"measurement": "IC50", "setting": "second compound 0.0316 µM", "result": 101, "unit": "nM"},
      {"measurement": "IC50", "setting": "second compound 0.1 µM", "result": 120, "unit": "nM"},
      {"measurement": "IC50", "setting": "second compound 0.316 µM", "result": 98.5, "unit": "nM"},
      {"measurement": "IC50", "setting": "second compound 1 µM", "result": 91, "unit": "nM"},
      {"measurement": "IC50", "setting": "second compound 3.16 µM", "result": 125, "unit": "nM"},
      {"measurement": "IC50", "setting": "second compound 10 µM", "result": 99.6, "unit": "nM"},
      {"measurement": "viability, T/C", "setting": "[1]", "result": 79.4, "unit": "%"},
      {"measurement": "viability, T/C", "setting": "[2]", "result": 49.7, "unit": "%"},
      {"measurement": "viability, T/C", "setting": "[3]", "result": 25.9, "unit": "%"},
      {"measurement": "viability, T/C", "setting": "[4]", "result": 9.43, "unit": "%"},
      {"measurement": "viability, T/C", "setting": "[5]", "result": 12, "unit": "%"},
      {"measurement": "viability, T/C", "setting": "[6]", "result": 7.83, "unit": "%"},
      {"measurement": "viability, T/C", "setting": "[7]", "result": 66, "unit": "%"},
      {"measurement": "viability, T/C", "setting": "[8]", "result": 56.1, "unit": "%"},
      {"measurement": "viability, T/C", "setting": "[9]", "result": 16.4, "unit": "%"},
      {"measurement": "viability, T/C", "setting": "[10]", "result": 9.58, "unit": "%"},
      {"measurement": "viability, T/C", "setting": "[11]", "result": 11.2, "unit": "%"},
      {"measurement": "viability, T/C", "setting": "[12]", "result": 8.08, "unit": "%"},
      {"measurement": "viability, T/C", "setting": "[13]", "result": 70.3, "unit": "%"},
      {"measurement": "viability, T/C", "setting": "[14]", "result": 49.6, "unit": "%"},
      {"measurement": "viability, T/C", "setting": "[15]", "result": 23, "unit": "%"},
      {"measurement": "viability, T/C", "setting": "[16]", "result": 10.9, "unit": "%"},
      {"measurement": "viability, T/C", "setting": "[17]", "result": 9.72, "unit": "%"},
      {"measurement": "viability, T/C", "setting": "[18]", "result": 8.92, "unit": "%"},
      {"measurement": "viability, T/C", "setting": "[19]", "result": 80.3, "unit": "%"},
      {"measurement": "viability, T/C", "setting": "[20]", "result": 47.1, "unit": "%"},
      {"measurement": "viability, T/C", "setting": "[21]", "result": 21.6, "unit": "%"},
      {"measurement": "viability, T/C", "setting": "[22]", "result": 9.7, "unit": "%"},
      {"measurement": "viability, T/C", "setting": "[23]", "result": 10.3, "unit": "%"},
      {"measurement": "viability, T/C", "setting": "[24]", "result": 8.64, "unit": "%"},
      {"measurement": "viability, T/C", "setting": "[25]", "result": 72.2, "unit": "%"},
      {"measurement": "viability, T/C", "setting": "[26]", "result": 54.2, "unit": "%"},
      {"measurement": "viability, T/C", "setting": "[27]", "result": 30, "unit": "%"},
      {"measurement": "viability, T/C", "setting": "[28]", "result": 10.4, "unit": "%"},
      {"measurement": "viability, T/C", "setting": "[29]", "result": 11.8, "unit": "%"},
      {"measurement": "viability, T/C", "setting": "[30]", "result": 7.71, "unit": "%"},
      {"measurement": "viability, T/C", "setting": "[31]", "result": 67.1, "unit": "%"},
      {"measurement": "viability, T/C", "setting": "[32]", "result": 50.2, "unit": "%"},
      {"measurement": "viability, T/C", "setting": "[33]", "result": 21.1, "unit": "%"},
      {"measurement": "viability, T/C", "setting": "[34]", "result": 11.6, "unit": "%"},
      {"measurement": "viability, T/C", "setting": "[35]", "result": 9.48, "unit": "%"},
      {"measurement": "viability, T/C", "setting": "[36]", "result": 6.52, "unit": "%"}
    ]},
    {"molecule": "CC1COCCN1c1cc(C2(S(C)(=N)=O)CC2)nc(-c2ccnc3[nH]ccc23)n1", "note": "(centres undefined) + CN(C)c1ccc(Nc2c3ccc(NC(=O)CCN4CCCC4)cc3nc3cc(NC(=O)CCN4CCCC4)ccc23)cc1", "values": [
      {"measurement": "IC50", "setting": "second compound 0.0316 µM", "result": 2210, "unit": "nM"},
      {"measurement": "IC50", "setting": "second compound 0.1 µM", "result": 1870, "unit": "nM"},
      {"measurement": "IC50", "setting": "second compound 0.316 µM", "result": 2110, "unit": "nM"},
      {"measurement": "IC50", "setting": "second compound 1 µM", "result": 2070, "unit": "nM"},
      {"measurement": "IC50", "setting": "second compound 3.16 µM", "result": 1990, "unit": "nM"},
      {"measurement": "IC50", "setting": "second compound 10 µM", "result": 1490, "unit": "nM"},
      {"measurement": "viability, T/C", "setting": "[1]", "result": 92.4, "unit": "%"},
      {"measurement": "viability, T/C", "setting": "[2]", "result": 85.2, "unit": "%"},
      {"measurement": "viability, T/C", "setting": "[3]", "result": 86.2, "unit": "%"},
      {"measurement": "viability, T/C", "setting": "[4]", "result": 75, "unit": "%"},
      {"measurement": "viability, T/C", "setting": "[5]", "result": 38.7, "unit": "%"},
      {"measurement": "viability, T/C", "setting": "[6]", "result": 15.9, "unit": "%"},
      {"measurement": "viability, T/C", "setting": "[7]", "result": 100, "unit": "%"},
      {"measurement": "viability, T/C", "setting": "[8]", "result": 81.9, "unit": "%"},
      {"measurement": "viability, T/C", "setting": "[9]", "result": 84.6, "unit": "%"},
      {"measurement": "viability, T/C", "setting": "[10]", "result": 69.9, "unit": "%"},
      {"measurement": "viability, T/C", "setting": "[11]", "result": 33.6, "unit": "%"},
      {"measurement": "viability, T/C", "setting": "[12]", "result": 17.6, "unit": "%"},
      {"measurement": "viability, T/C", "setting": "[13]", "result": 103, "unit": "%"},
      {"measurement": "viability, T/C", "setting": "[14]", "result": 101, "unit": "%"},
      {"measurement": "viability, T/C", "setting": "[15]", "result": 97.8, "unit": "%"},
      {"measurement": "viability, T/C", "setting": "[16]", "result": 76.3, "unit": "%"},
      {"measurement": "viability, T/C", "setting": "[17]", "result": 35.7, "unit": "%"},
      {"measurement": "viability, T/C", "setting": "[18]", "result": 15.6, "unit": "%"},
      {"measurement": "viability, T/C", "setting": "[19]", "result": 115, "unit": "%"},
      {"measurement": "viability, T/C", "setting": "[20]", "result": 85.6, "unit": "%"},
      {"measurement": "viability, T/C", "setting": "[21]", "result": 109, "unit": "%"},
      {"measurement": "viability, T/C", "setting": "[22]", "result": 70.2, "unit": "%"},
      {"measurement": "viability, T/C", "setting": "[23]", "result": 38.5, "unit": "%"},
      {"measurement": "viability, T/C", "setting": "[24]", "result": 18, "unit": "%"},
      {"measurement": "viability, T/C", "setting": "[25]", "result": 90.8, "unit": "%"},
      {"measurement": "viability, T/C", "setting": "[26]", "result": 99.2, "unit": "%"},
      {"measurement": "viability, T/C", "setting": "[27]", "result": 97.5, "unit": "%"},
      {"measurement": "viability, T/C", "setting": "[28]", "result": 69.1, "unit": "%"},
      {"measurement": "viability, T/C", "setting": "[29]", "result": 37.1, "unit": "%"},
      {"measurement": "viability, T/C", "setting": "[30]", "result": 15.8, "unit": "%"},
      {"measurement": "viability, T/C", "setting": "[31]", "result": 88.2, "unit": "%"},
      {"measurement": "viability, T/C", "setting": "[32]", "result": 100, "unit": "%"},
      {"measurement": "viability, T/C", "setting": "[33]", "result": 81.2, "unit": "%"},
      {"measurement": "viability, T/C", "setting": "[34]", "result": 59.5, "unit": "%"},
      {"measurement": "viability, T/C", "setting": "[35]", "result": 32.8, "unit": "%"},
      {"measurement": "viability, T/C", "setting": "[36]", "result": 20.3, "unit": "%"}
    ]}
  ]
}
